Assay results taken from ChEMBL document CHEMBL1158654, “Cytotoxic principles from the sap of Kalmia latifolia” (J Nat Prod, 1979).
Values after ≈ are worked out from the molar mass of the structure shown.

How the values were obtained:
[1] = Cytotoxicity against human 9KB cells assessed as cell survival at 100 ug/ml relative to control; type: functional; details: read-out: Activity
[2] = Cytotoxicity against human 9KB cells assessed as cell survival at 10 ug/ml relative to control; type: functional; details: read-out: Activity
[3] = Cytotoxicity against human 9KB cells relative to control; type: functional; details: read-out: ED50 (the source's name)
[4] = Cytotoxicity against human 9KB cells in in-vivo based assay at 65 mg/kg relative to control; type: functional
[5] = Toxicity in ip dosed mouse; type: organism-based; details: in vivo
P388 = experiment: Cytotoxicity against mouse P388 cells relative to control; type: functional

SMILES: COc1ccc(CCC(=O)c2c(O)cc(O)cc2O)cc1O
- viability at 100 µg/mL [1]: 46%
- viability at 10 µg/mL [2]: 100%

SMILES: COc1cc(CCC(=O)c2ccccc2)ccc1O
- viability at 100 µg/mL [1]: 0%
- viability at 10 µg/mL [2]: 82%

SMILES: O=C(CCc1ccc(O)cc1)c1c(O)cccc1O
- viability at 100 µg/mL [1]: 20%
- viability at 10 µg/mL [2]: 100%

SMILES: O=C(CCc1ccc(O)cc1)c1cccc(O)c1
- viability at 100 µg/mL [1]: 0%
- viability at 10 µg/mL [2]: 71%

SMILES: O=C(CCc1ccc(O)c(O)c1)c1ccccc1O
- viability at 100 µg/mL [1]: 0%
- viability at 10 µg/mL [2]: 100%

SMILES: COc1cc(CCC(=O)c2ccccc2O)ccc1O
- viability at 100 µg/mL [1]: 0%
- viability at 10 µg/mL [2]: 76%

SMILES: COc1ccc(C(=O)CCc2ccc(O)cc2)c(O)c1
- viability at 100 µg/mL [1]: 0%
- viability at 10 µg/mL [2]: 100%

SMILES: COc1cc(O)c(C(C)=O)c(O)c1
- viability at 100 µg/mL [1]: 0%
- viability at 10 µg/mL [2]: 0%
- EC50 [3]: 4.7 µg/mL (≈ 25.8 µM)

SMILES: O=C(CCc1ccc(O)cc1)c1ccc(O)c(O)c1O
- viability at 100 µg/mL [1]: 0%
- viability at 10 µg/mL [2]: 100%

SMILES: O=C(CCc1ccc(O)cc1)c1ccccc1O
- viability at 100 µg/mL [1]: 0%
- viability at 10 µg/mL [2]: 100%

SMILES: COc1cc(O)c(C(=O)CCc2ccccc2)c(OC)c1
- viability at 100 µg/mL [1]: 0%
- viability at 10 µg/mL [2]: 59%

SMILES: COc1cc(C(=O)CCc2ccc(O)cc2)ccc1O
- viability at 100 µg/mL [1]: 0%
- viability at 10 µg/mL [2]: 57%

SMILES: O=C(CCc1ccc(O)c(O)c1)c1c(O)cc(O)cc1O
- viability at 100 µg/mL [1]: 0%
- viability at 10 µg/mL [2]: 95%

SMILES: O=C(CCc1ccc(O)cc1)c1ccc(O)cc1
- viability at 100 µg/mL [1]: 0%
- viability at 10 µg/mL [2]: 90%

SMILES: O=C(CCc1ccc(O)cc1)c1ccccc1
- viability at 100 µg/mL [1]: 0%
- viability at 10 µg/mL [2]: 89%

SMILES: O=C(CCc1ccccc1)c1c(O)cc(O)cc1O
- viability at 100 µg/mL [1]: 0%
- viability at 10 µg/mL [2]: 100%

SMILES: O=C(CCc1ccc(O)c(O)c1)c1ccc(O)c(O)c1O
- viability at 100 µg/mL [1]: 0%
- viability at 10 µg/mL [2]: 0%
- EC50 [3]: 2.5 µg/mL (≈ 8.61 µM)
- T/C [4]: 126%

SMILES: CC(=O)c1c(O)cc(O)cc1O [2,4,6-TRIHYDROXYACETOPHENONE]
- viability at 100 µg/mL [1]: 29%
- viability at 10 µg/mL [2]: 100%

SMILES: COc1cc(O)c(C(=O)CCc2ccc(O)cc2)c(O)c1 [ASEBOGENIN]
- viability at 100 µg/mL [1]: 0%
- viability at 10 µg/mL [2]: 100%

SMILES: COc1cc(O)c(C(=O)CCc2ccc(O)cc2)c(O[C@@H]2O[C@H](CO)[C@@H](O)[C@H](O)[C@H]2O)c1 [ASEBOTIN]
- viability at 100 µg/mL [1]: 100%
- viability at 10 µg/mL [2]: 100%

SMILES: O=C(CCc1ccc(O)cc1)c1ccc(O)cc1O [DAVIDIGENIN]
- viability at 100 µg/mL [1]: 0%
- viability at 10 µg/mL [2]: 50%

SMILES: CC(=O)c1ccc(O)c(O)c1O [GALLACETOPHENONE]
- viability at 100 µg/mL [1]: 0%
- viability at 10 µg/mL [2]: 81%

SMILES: CC(=O)O[C@@H]1[C@H]2CC[C@H]3[C@@](C)(O)[C@@H]4C[C@H](O)C(C)(C)[C@@]4(O)[C@H](O)C[C@@]13C[C@@]2(C)O [GRAYANOTOXIN I]
- LD50 [5]: 1.3 mg/kg
- EC50 [3]: 60 µg/mL (≈ 145 µM)

SMILES: O=C(CCc1ccc(O)cc1)c1c(O)cc(O)cc1O [PHLORETIN]
- viability at 100 µg/mL [1]: 0%
- viability at 10 µg/mL [2]: 76%
- EC50 [3]: 28 µg/mL (≈ 102 µM)

SMILES: O=C(CCc1ccc(O)cc1)c1c(O)cc(O)cc1O[C@@H]1O[C@H](CO)[C@@H](O)[C@H](O)[C@H]1O [PHLORIZIN]
- viability at 100 µg/mL [1]: 47%
- viability at 10 µg/mL [2]: 100%
- EC50 [3]: 100 µg/mL (≈ 229 µM)

SMILES: COc1cc(O)c(C(C)=O)c(O[C@@H]2O[C@H](CO)[C@@H](O)[C@H](O)[C@H]2O)c1 [PLEOSIDE]
- viability at 100 µg/mL [1]: 39%
- viability at 10 µg/mL [2]: 100%

SMILES: COc1cc(O)c(Cc2ccccc2O)c(O)c1C(=O)CCc1ccccc1 [UVARETIN]
- T/C (P388): 132%

SMILES: COc1cc(O)c(C(C)=O)c(OC)c1 [XANTHOXYLIN]
- viability at 100 µg/mL [1]: 0%
- viability at 10 µg/mL [2]: 100%
